Active and inactive are the calls of the source. The rule behind the calls is not given here.
Key:
[1] = test system: Salmonella Typhi PhoP-promoter GFP reporter, fluorescence, 4 h; experiment: PhoP promoter GFP reporter, Salmonella typhi, confirmatory inhibitors, fluorescence, 4 h (AID 463179)
[2] = as above; conditions: Salmonella Typhi PhoP-promoter GFP reporter, fluorescence, 4 h; at 150 µM (top of the series)

Work on `Cc1ccc(C2Sc3ccccc3N=C3c4ccccc4CC32)cc1` (centres undefined) yielded an IC50 [1] of 2.67 µM.

In the case of `O=C1C2=C(Nc3ccccc3SC2c2ccc(Cl)cc2)c2ccccc21` (centres undefined), the inhibition [2] is reported as 18% (inactive).

`Clc1ccc(C2Sc3ccccc3N=C3c4ccccc4CC32)cc1` (centres undefined) gave an IC50 [1] of 6.26 µM.

In the case of `O=C1C2=C(Nc3ccccc3SC2c2cccc(Br)c2)c2ccccc21` (centres undefined), the inhibition [2] is reported as -12.2% (inactive).

From PubChem BioAssay AID463179 (Southern Research Specialized Biocontainment Screening …, 2010)
